From ChEMBL document CHEMBL1201862, “PubChem BioAssay data set” (2004) come the findings set out here.

Molecules are shown by their SMILES. The source made the active and inactive calls.

One assay concerns the target Major prion protein (Homo sapiens, UniProt P04156). The assay is classed as functional, cell-based.
The target in assay [1] is Peroxisome proliferator-activated receptor gamma/Nuclear receptor coactivator 3 (Homo sapiens, UniProt P37231). Kind of assay: TR-FRET dose response biochemical High Throughput Screening assay for agonists of the steroid receptor coactivator 3 (SRC-3) recruitment by the peroxisome proliferator-activated receptor gamma (PPAR gamma): non-selective agonists. [Related pubchem assays: 1301 (Confirmation screen.), 1048 (Primary screen.)]. The assay is classed as functional.

The target of assay [2] is Peroxisome proliferator-activated receptor gamma/Nuclear receptor coactivator 2 (Homo sapiens, UniProt P37231). Kind of assay: TR-FRET dose response biochemical High Throughput Screening assay for agonists of the steroid receptor coactivator 2 (SRC-2) recruitment by the peroxisome proliferator-activated receptor gamma (PPAR gamma): non-selective agonists. [Related pubchem assays: 1297, 1032 ]. The assay is classed as functional.

Assay [3] addresses Peroxisome proliferator-activated receptor gamma/Nuclear receptor coactivator 1 (Homo sapiens, UniProt P37231). Kind of assay: TR-FRET dose response biochemical High Throughput Screening assay for agonists of the steroid receptor coactivator 1 (SRC-1) recruitment by the peroxisome proliferator-activated receptor gamma (PPAR gamma): non-selective agonists. [Related pubchem assays (depositor defined):AID1300, AID1808, AID504735, AID631]. The assay is classed as protein assay.

Assay [4] deals with T1, Rac GTPase-activating protein 1 (Homo sapiens, UniProt Q9H0H5).
T1 sequence (Q9H0H5 whole entry): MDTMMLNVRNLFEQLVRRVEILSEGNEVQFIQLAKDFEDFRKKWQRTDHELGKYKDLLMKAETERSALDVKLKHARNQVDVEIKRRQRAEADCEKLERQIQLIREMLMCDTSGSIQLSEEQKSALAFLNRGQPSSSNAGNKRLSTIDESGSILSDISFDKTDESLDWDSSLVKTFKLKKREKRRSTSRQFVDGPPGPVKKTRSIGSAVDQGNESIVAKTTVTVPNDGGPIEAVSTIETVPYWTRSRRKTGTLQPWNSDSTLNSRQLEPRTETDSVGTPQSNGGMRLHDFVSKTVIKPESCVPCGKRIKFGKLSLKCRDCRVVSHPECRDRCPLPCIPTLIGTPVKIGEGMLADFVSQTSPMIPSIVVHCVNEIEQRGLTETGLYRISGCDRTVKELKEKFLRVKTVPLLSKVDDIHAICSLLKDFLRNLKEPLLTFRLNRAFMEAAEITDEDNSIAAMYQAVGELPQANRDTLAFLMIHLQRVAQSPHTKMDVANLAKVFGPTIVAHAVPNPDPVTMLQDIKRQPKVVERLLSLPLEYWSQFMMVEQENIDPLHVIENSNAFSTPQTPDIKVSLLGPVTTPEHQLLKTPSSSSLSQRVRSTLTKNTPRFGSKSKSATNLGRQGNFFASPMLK
Kind of assay: blockers of MgcRacGAP-driven Rac1 GTP hydrolysis – biochemical, ADP Hunter fluorescence, primary and confirmatory, confirmation (AID 624330). The assay is classed as functional.

Assay [5] addresses FAD-linked sulfhydryl oxidase ALR (Homo sapiens, UniProt P55789). Kind of assay: ALR-catalysed DTT oxidation blockers – biochemical, H2O2 detection, luminescence, cherry-pick, dose response (AID 493248).
The target of a further assay is Protein Tat (Human immunodeficiency virus type 1 group M subtype B (isolate HXB2)(HIV-1), UniProt P04608). The assay is classed as functional.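 Note: tat binding to TAR RNA read out by fluorescence polarization.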
The nature of assay [6]: viability loss in HepG2 liver cells – cell-based, ATP luminescence, cherry-pick, set 6, cytotoxicity control, dose response (AID 1053125). The assay is classed as functional.
A short description of assay [7]: cells. The following applies: A549.
In assay [8] the target is Disintegrin and metalloproteinase domain-containing protein 17 (Homo sapiens, UniProt P78536). Kind of assay: inhibition of ADAM17 substrate cleavage – biochemical, quenched FRET substrate, counter-screen for ADAM10 exosite inhibitor project, dose response (AID 743253).
A short description of assay [9]: potency of ADAM10 substrate cleavage blockers – biochemical, QFRET, dose response (AID 743254).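 Note: ADAM10 enzyme with the DM2 quenched FRET peptide as substrate; EDANS fluorescence gain as the protease cuts the substrate; inhibitor potency against ADAM10 proteolytic activity.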
A short description of assay [10]: P. falciparum Dd2 growth inhibitors, dose response, SYBR Green, cherry-picked samples (AID 1159567). The assay is classed as functional, cell-based.
Assay [11] in a line: blockers of bursicon-stimulated LGR2 cAMP reporter – cell-based, HEK293, CRE-luciferase reporter, cherry pick, set 2, dose response (AID 743343).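 Note: transfected cells were stimulated with diluted bursicon conditioned medium after compound addition.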 The assay is classed as functional.
Assay [12] can be described thus: growth inhibition of PfATP4-mutant resistant parasites – NITD609-resistant line, SYBR Green, dry powder, dose response (AID 1159571).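 Note: parasites synchronized at ring stage by sorbitol before testing.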 The assay is classed as functional, cell-based.
Assay [13] can be described thus: IGROV1 cell killing – plate reader, dry powder samples, PAX8 inhibitor project, dose response (AID 743043). The assay is classed as functional, cell-based. The following applies: IGROV-1.
Assay [14] is described as follows: toxicity to human HepG2 hepatoma cells – cell-based, plate reader, dry powder samples, cytotoxicity control, dose response (AID 1159569).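 Note: inhibitor potency with signal falling toward the positive control level.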 The assay is classed as functional.
The nature of assay [15]: toxicity toward immortalized ovarian surface epithelium – cell-based, plate reader, dry powder samples, cytotoxicity control for PAX8 inhibitor project, dose response (AID 743045). The assay is classed as functional.
Assay [16] is described as follows: growth inhibition of yeast DHODH-expressing 3D7 parasites – SYBR Green, dry powder samples, dose response (AID 1159570).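 Note: parasite growth measured after 72 hours of compound exposure.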 The assay is classed as functional, cell-based.
Assay [17] in a line: A549 cell cytotoxicity, dose response, cytotoxicity control, plate reader, cherry-pick, antagonist series (AID 743412). The assay is classed as functional, cell-based.
Assay [18] is described as follows: viability loss in HEK293 cells – cell-based, plate reader, cherry-picked samples, cytotoxicity control, dose response (AID 743446). The assay is classed as functional.
Assay [19] is described as follows: OVCAR-3 cell viability loss – plate reader, dry powder samples, PAX8 inhibitor project, dose response (AID 743044). The assay is classed as functional, cell-based.
A short description of assay [20]: Dd2 malaria parasite growth inhibition potency – SYBR Green, dry powder samples, dose response (AID 1159566).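 Note: potency for growth inhibition with lower SYBR green DNA signal.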 The assay is classed as functional, cell-based.
A short description of assay [21]: blockade of melanocortin 4 receptor signaling – cell-based, plate reader, cherry pick, counter-screen for LGR2 antagonist project, dose response (AID 743444).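 Note: transfected HEK 293 cells stimulated with alpha-MSH peptide; potency of inhibitors of the alpha-MSH evoked signal.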 The assay is classed as functional.
Assay [22] can be described thus: toxicity toward HepG2 liver cells – cell-based, plate reader, cherry-pick, antagonist series, cytotoxicity control, dose response (AID 743416). The assay is classed as functional.
The target of the next assay is Paired box protein Pax-8 (Homo sapiens, UniProt Q06710). Kind of assay: PAX8 transcriptional activity inhibition in RMG-I – RMG-I cells, luciferase, cherry-pick, dose response (AID 687027).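 Note: luciferase reporter driven by Pax8 target thyroperoxidase promoter measured by SteadyGlo luminescence.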 The assay is classed as functional, cell-based.
Assay [23] in a line: A2780 cell killing – plate reader, dry powder samples, cytotoxicity control, dose response (AID 743046). The assay is classed as functional, cell-based.
A short description of assay [24]: OVCAR8 cell viability loss – plate reader, dry powder samples, PAX8 project, dose response (AID 743197). The assay is classed as functional, cell-based. The following applies: OVCAR-8.
A short description of assay [25]: cells.
The nature of assay [26]: toxicity to human hepatoma HepG2 cells – cell-based, cherry-picked samples, cytotoxicity control, dose response (AID 1159577). The assay is classed as functional.
The nature of assay [27]: HIV-1 AD8 envelope cell-cell fusion blockers – cherry-pick, dose response (AID 652062).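 Note: luciferase signal from cell-cell fusion driven by HIV-1 clade B AD8 Env; potency is for inhibitors of fusion seen as a drop in luminescence.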 The assay is classed as functional, cell-based.
In assay [28] the target is COUP transcription factor 2 (Homo sapiens, UniProt P24468). Kind of assay: Luminescence-based cell-based high throughput dose response assay to identify inhibitors of COUP-TFII (NR2F2). The assay is classed as functional.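 Note: HEK293 cells transiently cotransfected with COUP-TFII expression vector and reporter; luciferase reporter luminescence driven by COUP-TFII from the pX2-168 reporter plasmid.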
Assay [29] is described as follows: blockers of HIV-1 ZM109 envelope-driven cell-cell fusion – HeLa effector, CEM target cells, luciferase, cherry-pick, dose response (AID 652058).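 Note: luciferase signal from HIV-1 Env mediated cell-cell fusion of effector and target cells.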 The assay is classed as functional, cell-based.
A short description of assay [30]: off-target signal loss in HeLa-CEM21 co-culture – HeLa F-luc CTL cells, cherry-picked, counter-screen for HIV-1 Env fusion inhibitor project, dose response (AID 652040).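 Note: potency for signal decrease marking cytotoxic or nonspecific inhibition.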 The assay is classed as functional, cell-based.
Assay [31] is described as follows: cells. The assay is classed as functional, cell-based. The following applies: HEK-CNG.
A further assay deals with T2, Galanin receptor type 3 (Homo sapiens, UniProt O60755).
T2 sequence (O60755 whole entry): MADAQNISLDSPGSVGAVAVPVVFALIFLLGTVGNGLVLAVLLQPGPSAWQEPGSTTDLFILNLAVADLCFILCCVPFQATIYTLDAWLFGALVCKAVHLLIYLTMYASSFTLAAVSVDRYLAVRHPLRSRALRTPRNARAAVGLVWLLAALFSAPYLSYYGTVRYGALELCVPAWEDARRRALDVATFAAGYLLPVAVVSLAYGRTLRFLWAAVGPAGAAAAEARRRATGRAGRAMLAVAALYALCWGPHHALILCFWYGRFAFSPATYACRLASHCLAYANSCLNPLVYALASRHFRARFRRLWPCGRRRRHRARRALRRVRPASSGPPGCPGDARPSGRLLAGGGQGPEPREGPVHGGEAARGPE
Kind of assay: Fluorescence-based cell-based primary high throughput dose response assay to identify antagonists of the Galanin Receptor 3 (GalR3). The assay is classed as functional.

Turning to `CNC(=O)NC(=O)CSc1nc(-c2cccs2)c(C#N)c(=O)[nH]1`, on Major prion protein, the IC50 was 0.876 µM (active). For the same molecule, the concentration for a half-maximal effect (EC50) in assay [1] is > 79.4 µM (not active); in assay [2] it was > 79.4 µM (not active); in assay [3], > 79.4 µM (inactive).

Take `CC(=O)N1CCN(c2ccc(NCc3ccc(F)cc3)cc2)CC1`: the concentration for half-maximal inhibition (IC50) in [4] is 12.9 µM (active); at Protein Tat, > 100 µM (inconclusive). Besides, the AC50 in assay [5] was 0.198 µM (active).

On to `CN(C)CCOCCOc1ccc(Cl)c2ccccc12`, for which the AC50 (in [6]; in “cells [7]”) was > 52 µM (inactive) in each case.

For the molecule `NC(=O)[C@@H]1CC2(CC(c3cccc(NC(=O)CC(c4ccccc4)c4ccccc4)c3)=NO2)CN1C(=O)COc1ccc(Cl)cc1` (some centres not stated), the IC50 in [8] and in assay [9] was > 69.5 µM (inactive) in each case.

Turning to `O=C(C1CC1)N1C[C@@H]2N[C@H](C1)[C@@H]2c1ccc(-c2ccncc2)cc1`, the AC50 in assay [10] was 0.965 µM (active); in [11], 5.41 µM (active); in assay [12] it was 0.974 µM (active); in assay [13] it was 13.1 µM (active); in assay [14], > 100 µM (inactive); in assay [15] it was 12.2 µM (active). Moreover, the half-maximal activity concentration (AC50) is 0.629 µM (active) in [16]; 2.89 µM (active) in assay [17]; 24.5 µM (active) in assay [18]; 13.2 µM (active) in [19]; 0.555 µM (active) in assay [20]; 4.85 µM (active) in assay [21]. Further, the AC50 was 21.4 µM (active) in [22], 2.98 µM (active) on Paired box protein Pax-8, 12.7 µM (active) in assay [23] and 12.1 µM (active) in assay [24].

As for `CCOC(=O)N1CCN(C(=O)COc2ccc3ccccc3c2Br)CC1`, the results for the half-maximal inhibitory concentration (IC50) on Major prion protein and in the assay “cells [25]” were 6.28 µM (active) and > 138 µM (inactive), respectively.

For `C[C@@H]1CN([C@@H](C)CO)C(=O)Cc2cc(NC(=O)Nc3ccc(F)cc3)ccc2O[C@H]1CN(C)Cc1ccc(Oc2ccccc2)cc1`, the concentration at half-maximal activity (AC50) was 1.5 µM (active) in assay [10] and 15.1 µM (active) in assay [26].

Take `O=C(Nc1ccc(Oc2ccccc2)cc1)c1csc([C@H]2C[C@H](O)[C@@H](CO)O2)n1`: the values for the half-maximal activity concentration (AC50) in assay [27], in [29] and in assay [30] were 5.85 µM (active), 27.4 µM (active) and > 70 µM (inactive), respectively. Moreover, the IC50 in [28] was 5.35 µM (active); on Galanin receptor type 3, 0.4 µM (active). Further, in the assay “cells [31]”, the EC50 was > 29.9 µM (inactive).
